Data reported in patent US6514912B1, “Use of benzo[C]quinolizine derivatives as plant growth regulators” (Applied Research Systems ARS Holding N.V., priority 1998, dated 2003).

Test system: Arabidopsis Thaliana Columbia (Col 0) seeds
Assay: Germination of Arabidopsis seeds in the dark, hypocotyledon length
Assay type: in vivo
Conditions: 10 days in the dark
Procedure: Batches of 25 seeds of Arabidopsis Thaliana Columbia (Col 0) were made to germinate in a suitable culture medium consisting of 0.5 ×MS at pH 5.7, containing 1% sucrose, 1×Vitamin B5 Gamborg, and 0.8% phyto-agar in the presence of the 1,2,5,6-tetrahydro-(11H)benzo[c]quinolizin-3-one inhibitor at the concentrations of 0, 0.01, 0.1, 1 and 10 micromolar. After two hours of treatment in light, the seeds were covered with three layers of aluminium foil and kept at 21° C. in a growth chamber. After 10 days in the dark, the length of the hypocotyledons was measured. […] A reduction of 50% in the hypocotyledons as compared to the controls was found for the seeds treated with a concentration of 0.1 micromolar of inhibitor.

In the case of `O=C1C=C2CCc3ccccc3N2CC1` [1,2,5,6-tetrahydro-(11H)benzo[c]quinolizin-3-one], the “length of the hypocotyledons versus inhibitor concentration” value (0.01, 0.1, 1 and 10 micromolar, untreated approximately 15-16 mm) was “progressively shorter as the concentration of inhibitor used was increased” and the “reduction in the hypocotyledons as compared to the controls” value (0.1 micromolar inhibitor in culture medium, 21° C., batches of 25 seeds) was 50%.
